Measurements as given in US10550105B2 (Ribon Therapeutics Inc., priority 2018, dated 2020).

target: PARP7 (Homo sapiens (Human), UniProt Q7Z3E1); assay: Enzymatic assay for inhibition of PARP7: TR-FRET displacement of biotinylated Probe A from the TIPARP active site; type: binding; details: Table A-1
Description: 20 nL of a dose response curve of each test compound was spotted in black 384-well polystyrene proxiplates (Perkin Elmer) using a Mosquito (TTP Labtech). […] Reactions were incubated at 25° C. for an additional 30 min, then read on an Envision platereader equipped with a LANCE/DELFIA top mirror (Perkin Elmer) using excitation of 320 nm and emission of 615 nm and […] with a 90 μs delay. The ratio of the 665/615 nm emission were calculated for each well to determine the amount of complex of TIPARP and Probe A in each well. […] The Hill Coefficient is normally allowed to float but may also be fixed at 1 in a 3-parameter fit. Y is the % inhibition and x is the compound concentration.

PARP7, sequence (Q7Z3E1 whole entry): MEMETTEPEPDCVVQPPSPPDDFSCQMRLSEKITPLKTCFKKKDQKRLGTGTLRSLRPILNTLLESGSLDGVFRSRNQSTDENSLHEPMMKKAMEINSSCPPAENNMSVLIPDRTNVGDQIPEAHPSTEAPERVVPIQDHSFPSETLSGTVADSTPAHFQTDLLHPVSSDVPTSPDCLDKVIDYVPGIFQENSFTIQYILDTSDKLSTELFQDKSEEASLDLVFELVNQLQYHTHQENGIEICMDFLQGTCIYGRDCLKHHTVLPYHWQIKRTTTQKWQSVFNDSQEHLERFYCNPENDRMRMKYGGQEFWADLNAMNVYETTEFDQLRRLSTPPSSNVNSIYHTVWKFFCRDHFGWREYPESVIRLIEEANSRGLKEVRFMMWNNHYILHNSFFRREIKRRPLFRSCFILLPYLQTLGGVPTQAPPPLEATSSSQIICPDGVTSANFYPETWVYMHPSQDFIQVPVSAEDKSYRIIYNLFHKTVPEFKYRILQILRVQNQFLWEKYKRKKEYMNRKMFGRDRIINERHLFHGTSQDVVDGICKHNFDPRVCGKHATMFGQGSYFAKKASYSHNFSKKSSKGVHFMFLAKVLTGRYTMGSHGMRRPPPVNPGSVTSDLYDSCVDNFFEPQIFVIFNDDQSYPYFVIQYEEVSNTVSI

| IC50 [nM] | Compound |
| --- | --- |
| 100 to 1000 | N#Cc1ccc(N2CCC3(CN(C(=O)CCOC[C@@H]4CCCN4c4cn[nH]c(=O)c4C(F)(F)F)C3)C2)nc1 [Example 109, 6-[2-(3-[[(2S)-1-[6-oxo-5-(trifluoromethyl)-1,6-dihydropyridazin-4-yl]pyrrolidin-2-yl]methoxy]propanoyl)-2,6-diazaspiro[3.4]octan-6-yl]pyridine-3-carbonitrile] |
| 100 to 1000 | N#Cc1ccc(N2CCC3(CCN(C(=O)CCOC[C@@H]4CCCN4c4cn[nH]c(=O)c4C(F)(F)F)C3)C2)nc1 (stereo partly drawn) [Example 111, 6-[7-(3-[[(2S)-1-[6-oxo-5-(trifluoromethyl)-1,6-dihydropyridazin-4-yl]pyrrolidin-2-yl]methoxy]propanoyl)-2,7-diazaspiro[4.4]nonan-2-yl]pyridine-3-carbonitrile] |
| 100 to 1000 | O=C(C[C@H]1CC[C@H](COc2cn[nH]c(=O)c2C(F)(F)F)O1)N1CCN(c2ncc(C(F)(F)F)cn2)CC1 (single isomer, unassigned) [Example 574 Isomer B] |
| 100 to 1000 | N#Cc1ccc(N2CCN(C(=O)C34C5C6C3C3C4C5C63COC[C@@H]3CCCN3c3cn[nH]c(=O)c3C(F)(F)F)CC2)nc1 (stereo partly drawn) [Example 479, (S)-6-(4-(4-(((1-(6-Oxo-5-(trifluoromethyl)-1,6-dihydropyridazin-4-yl)pyrrolidin-2-yl)methoxy)methyl)cubane-1-carbonyl)piperazin-1-yl)nicotinonitrile] |
| 100 to 1000 | COc1ccc2c(c1)C(C)N(c1cn[nH]c(=O)c1C(F)(F)F)C2 (stereo not drawn) [Example 332, 5-(6-Methoxy-1-methylisoindolin-2-yl)-4-(trifluoromethyl)pyridazin-3(2H)-one] |
| < 100 | N#Cc1ccc(N2CCN(C(=O)NCCOC[C@@H]3CCCN3c3cn[nH]c(=O)c3C(F)(F)F)CC2)nc1 [Example 126, 4-(5-cyanopyridin-2-yl)-N-(2-[[(2S)-1-[6-oxo-5-(trifluoromethyl)-1,6-dihydropyridazin-4-yl]pyrrolidin-2-yl]methoxy]ethyl)piperazine-1-carboxamide] |
| < 100 | C[C@@H](COC[C@H](N)CC(=O)N1CCN(c2ncc(C(F)(F)F)cn2)CC1)Nc1cn[nH]c(=O)c1C(F)(F)F (single isomer, unassigned) [Example 617 Isomer A] |
| ≥ 1000 | O=C(C[C@@H]1CC[C@H](COc2cn[nH]c(=O)c2Cl)O1)N1CCN(c2ncc(C(F)(F)F)cn2)CC1 [Example 575 Isomer D, 4-Chloro-5-(((2R,5S)-5-(2-oxo-2-(4-(5-(trifluoromethyl)pyrimidin-2-yl)piperazin-1-yl)ethyl)-tetrahydrofuran-2-yl)methoxy)pyridazin-3(2H)-one] |
| < 100 | O=C(C[C@H]1CC[C@H](COc2cn[nH]c(=O)c2C(F)(F)F)O1)N1CCN(c2ccc(C(F)(F)F)cn2)CC1 (single isomer, unassigned) [Example 545 Isomer C] |
| < 100 | O=C(CCOC[C@H](Cc1cccnc1)Nc1cn[nH]c(=O)c1C(F)(F)F)N1CCN(c2ncc(C(F)(F)F)cn2)CC1 [Example 637, (S)-5-((1-(3-Oxo-3-(4-(5-(trifluoromethyl)pyrimidin-2-yl)piperazin-1-yl)propoxy)-3-(pyridin-3-yl)propan-2-yl)amino)-4-(trifluoromethyl)pyridazin-3(2H)-one] |
| 100 to 1000 | O=c1[nH]ncc(N2Cc3nccc(OC4CCNCC4)c3C2)c1C(F)(F)F [Example 9, 5-[4-(piperidin-4-yloxy)-5H,6H,7H-pyrrolo[3,4-b]pyridin-6-yl]-4-(trifluoromethyl)-2,3-dihydropyridazin-3-one] |
| < 100 | C[C@@H](COc1cn[nH]c(=O)c1C(F)(F)F)OCCC(=O)N1CCN(c2ncc(C(F)(F)F)cn2)CC1 (single isomer, unassigned) [Example 544 Isomer C] |
| < 100 | CN(CCOc1cccc2c1CN(c1cn[nH]c(=O)c1C(F)(F)F)C2)CCC(=O)N1CCN(c2ccc(C#N)cn2)CC1 [Example 493, 6-(4-(3-(Methyl(2-((2-(6-oxo-5-(trifluoromethyl)-1,6-dihydropyridazin-4-yl)isoindolin-4-yl)oxy)ethyl)amino)propanoyl)piperazin-1-yl)nicotinonitrile] |
| < 100 | N#Cc1ccc(N2CCN(C(=O)C[C@@H]3CCC[C@@H](COc4cn[nH]c(=O)c4C(F)(F)F)O3)CC2)nc1 (single isomer, unassigned) [Example 583 Isomer A] |
| < 100 | C[C@@H](COCCC(=O)N1CCN(c2cnc(C#N)cn2)CC1)Nc1cn[nH]c(=O)c1C(F)(F)F [Example 683, (S)-5-(4-(3-(2-((6-Oxo-5-(trifluoromethyl)-1,6-dihydropyridazin-4-yl)amino)propoxy)propanoyl)piperazin-1-yl)pyrazine-2-carbonitrile] |
| < 100 | C[C@H](CC(=O)N1CCN(c2ccc(C#N)cn2)CC1)OC[C@H](C)Oc1cn[nH]c(=O)c1C(F)(F)F (single isomer, unassigned) [Example 576 Isomer A] |
| < 100 | CN(CCOc1cccc(C(=O)N2CCN(c3ccc(C#N)cn3)CC2)c1)c1cn[nH]c(=O)c1C(F)(F)F [Example 29, 6-(4-[[3-(2-[methyl[6-oxo-5-(trifluoromethyl)-1,6-dihydropyridazin-4-yl]amino]ethoxy)phenyl]carbonyl]piperazin-1-yl)pyridine-3-carbonitrile] |
| < 100 | O=c1[nH]ncc(N2Cc3cccc(OCC4CCOC4)c3C2)c1C(F)(F)F (stereo not drawn) [Example 200, 5-(4-((Tetrahydrofuran-3-yl)methoxy)isoindolin-2-yl)-4-(trifluoromethyl)pyridazin-3(2H)-one] |
| 100 to 1000 | N#Cc1ccc(N2CCN(C(=O)CCO[C@H]3C[C@@H](CN)N(c4cn[nH]c(=O)c4C(F)(F)F)C3)CC2)nc1 [Example 487, 6-(4-(3-(((3S,5S)-5-(Aminomethyl)-1-(6-oxo-5-(trifluoromethyl)-1,6-dihydropyridazin-4-yl)pyrrolidin-3-yl)oxy)propanoyl)piperazin-1-yl)nicotinonitrile] |
| < 100 | N#Cc1ccc(N2CCN(C(=O)c3nccc(OC[C@@H]4CCCN4c4cn[nH]c(=O)c4C(F)(F)F)n3)CC2)nc1 [Example 66, 6-[4-[(4-[[(2S)-1-[6-oxo-5-(trifluoromethyl)-1,6-dihydropyridazin-4-yl]pyrrolidin-2-yl]methoxy]pyrimidin-2-yl)carbonyl]piperazin-1-yl]pyridine-3-carbonitrile] |
| < 100 | N#Cc1cnc(N2CCN(C(=O)c3cc(OC[C@@H]4c5ccccc5CN4c4cn[nH]c(=O)c4C(F)(F)F)ccn3)CC2)nc1 (single isomer, unassigned) [Example 64 Isomer B] |
| < 100 | CC(Oc1cccc2c1CN(c1cn[nH]c(=O)c1C(F)(F)F)C2)c1ccncc1 (stereo not drawn) [Example 252, 5-(4-(1-(Pyridin-4-yl)ethoxy)isoindolin-2-yl)-4-(trifluoromethyl)pyridazin-3(2H)-one] |
| < 100 | C[C@@H](COCCC(=O)N1CCN(c2cnc(Cl)cn2)CC1)Nc1cn[nH]c(=O)c1C(F)(F)F [Example 644, (S)-5-((1-(3-(4-(5-Chloropyrazin-2-yl)piperazin-1-yl)-3-oxopropoxy)propan-2-yl)amino)-4-(trifluoromethyl)pyridazin-3(2H)-one] |
| < 100 | CN(C)c1cccc2c1CN(c1cn[nH]c(=O)c1C(F)(F)F)C2 [Example 178, 5-(4-(Dimethylamino)isoindolin-2-yl)-4-(trifluoromethyl)pyridazin-3(2H)-one] |
| 100 to 1000 | N#Cc1ccc(N2CCN(C(=O)CCNC(=O)C[C@@H]3CCCN3c3cn[nH]c(=O)c3C(F)(F)F)CC2)nc1 [Example 132, N-[3-[4-(5-cyanopyridin-2-yl)piperazin-1-yl]-3-oxopropyl]-2-[(2S)-1-[6-oxo-5-(trifluoromethyl)-1,6-dihydropyridazin-4-yl]pyrrolidin-2-yl]acetamide] |
| ≥ 1000 | O=C(C[C@H]1CC[C@H](COc2cn[nH]c(=O)c2Cl)O1)N1CCN(c2ncc(Cl)cn2)CC1 (single isomer, unassigned) [Example 566 Isomer B] |
| < 100 | Cc1ccc(N2CCN(C(=O)CCOC[C@H](C)Nc3cn[nH]c(=O)c3C(F)(F)F)CC2)nc1 [Example 671, (S)-5-((1-(3-(4-(5-Methylpyridin-2-yl)piperazin-1-yl)-3-oxopropoxy)propan-2-yl)amino)-4-(trifluoromethyl)pyridazin-3(2H)-one] |

| Compound | IC50 [nM] |
| --- | --- |
| O=C(CCOC[C@@H]1CCCN1c1cn[nH]c(=O)c1C(F)(F)F)NC1CCC(Nc2ccccn2)CC1 (single isomer, unassigned; isomer a) [Example 81 Isomer A] | 100 to 1000 |
| O=c1[nH]ncc(N2Cc3cccc(Oc4ccncc4)c3C2)c1C(F)(F)F [Example 232, 5-(4-(pyridin-4-yloxy)isoindolin-2-yl)-4-(trifluoromethyl)pyridazin-3(2H)-one trifluoroacetic acid] | < 100 |
| CC(C)[C@@H](COCCC(=O)N1CCN(c2ccc(C#N)cn2)CC1)Nc1cn[nH]c(=O)c1C(F)(F)F [Example 595, 6-(4-[3-[(2S)-3-Methyl-2-[[6-oxo-5-(trifluoromethyl)-1,6-dihydropyridazin-4-yl]amino]butoxy]propanoyl]piperazin-1-yl)pyridine-3-carbonitrile] | < 100 |
| COc1cnc2c(c1)CN(c1cn[nH]c(=O)c1C(F)(F)F)C2 [Example 326, 5-(3-Methoxy-5,7-dihydro-6H-pyrrolo[3,4-b]pyridin-6-yl)-4-(trifluoromethyl)pyridazin-3(2H)-one] | < 100 |
| C[C@H](COC[C@@H]1CCCN1c1cn[nH]c(=O)c1C(F)(F)F)CC(=O)N1CCN(c2ccc(C#N)cn2)CC1 [Example 128B] | < 100 |
| O=C(CCOC[C@@H](Nc1cn[nH]c(=O)c1C(F)(F)F)[C@H]1CCOC1)N1CCN(c2ncc(C(F)(F)F)cn2)CC1 (single isomer, unassigned; isomer c) [Example 614 Isomer C] | < 100 |
